Literature values, collected in patent publication US12458707B2, “Targeted delivery of immunoregulatory drugs” (The Brigham and Women's Hospital, Inc., priority 2014, dated 2025).

Tested on: NOD mice
Details: 2.5 mg/kg/day every other day

In the case of `C=CC[C@@H]1/C=C(\C)C[C@H](C)C[C@H](OC)[C@H]2O[C@@](O)(C(=O)C(=O)N3CCCC[C@H]3C(=O)O[C@H](/C(C)=C/[C@@H]3CC[C@@H](O)[C@H](OC)C3)[C@H](C)[C@@H](O)CC1=O)[C@H](C)C[C@@H]2OC` [TAC, Tacrolimus], the “suppression of T1D” value is given as “efficiently suppress T1D”.
